Source: article PMC5581245 (Electrophoresis, 2017)

Assay: Retention of glycopeptides on reversed phase C18 nanoLC-MS
Format: physicochemical
Settings: difference between glycoform with and without fucose; RP C18 nanoLC, gradient 3

RRT difference introduced by fucose (RRT expressed as trx/trGlcNAc form) | Sequence
0.00204 | VVLHPNYSQVDIGLIK [bi-antennary glycoform of VVLHPNYSQVDIGLIK]
0.00096 | VVLHPNYSQVDIGLIK [tri-antennary glycoform of VVLHPNYSQVDIGLIK]

Sequence | RRT difference introduced by fucose (RRT expressed as trx/trGlcNAc form)
VVLHPNYSQVDIGLIK [tetra-antennary glycoform of VVLHPNYSQVDIGLIK] | 0.00035
